≈ marks a conversion by molar mass, not a printed value. Blank lines part the entries; values can stand above or below the compound they belong to. Calls of active or inactive are those of the source. The calls are words filed in the database; no cut-off is given here.
Experiments:
Staphylococcus aureus [1] = experiment: Antibacterial activity against Staphylococcus aureus NCIMB 12702 after 24 hrs by serial dilution method; type: functional; conditions: for MIC50 / MIC90 / MIC80: Staphylococcus aureus, NCIMB 12702, 24 h
Pseudomonas aeruginosa = experiment: Antibacterial activity against Pseudomonas aeruginosa ATCC 10145 after 24 hrs by serial dilution method; type: functional, organism-based
Escherichia coli = experiment: Antibacterial activity against Escherichia coli NCIMB 9485 after 24 hrs by serial dilution method; type: functional; conditions: for MIC50 / MIC90 / MIC80: NCIMB 9485, 24 h
Staphylococcus aureus [2] = experiment: Antibacterial activity against methicillin-resistant Staphylococcus aureus after 24 hrs by serial dilution method; type: functional
[3] = Toxicity in sixth development stage of Galleria mellonella larvae assessed as survival rate at 100 ug/ml after 48 hrs; type: organism-based; conditions: in vivo
[4] = Toxicity in sixth development stage of Galleria mellonella larvae assessed as survival rate at 10 ug/ml after 24 hrs; type: organism-based; conditions: in vivo
[5] = Toxicity in sixth development stage of Galleria mellonella larvae assessed as survival rate at 10 ug/ml after 48 hrs; type: organism-based; conditions: in vivo
[6] = Toxicity in sixth development stage of Galleria mellonella larvae assessed as survival rate at 100 ug/ml after 72 hrs; type: organism-based; conditions: in vivo
[7] = Toxicity in sixth development stage of Galleria mellonella larvae assessed as survival rate at 1000 ug/ml after 72 hrs; type: organism-based; conditions: in vivo
[8] = Toxicity in sixth development stage of Galleria mellonella larvae assessed as survival rate at 50 ug/ml after 48 hrs; type: organism-based; conditions: in vivo
[9] = Toxicity in sixth development stage of Galleria mellonella larvae assessed as survival rate at 1 ug/ml after 48 hrs; type: organism-based; conditions: in vivo
[10] = Toxicity in sixth development stage of Galleria mellonella larvae assessed as survival rate at 50 ug/ml after 24 hrs; type: organism-based; conditions: in vivo
[11] = Toxicity in sixth development stage of Galleria mellonella larvae assessed as survival rate at 10 ug/ml after 72 hrs; type: organism-based; conditions: in vivo
[12] = Toxicity in sixth development stage of Galleria mellonella larvae assessed as survival rate at 1000 ug/ml after 48 hrs; type: organism-based; conditions: in vivo
[13] = Toxicity in sixth development stage of Galleria mellonella larvae assessed as survival rate at 50 ug/ml after 72 hrs; type: organism-based; conditions: in vivo
[14] = Toxicity in sixth development stage of Galleria mellonella larvae assessed as survival rate at 1000 ug/ml after 24 hrs; type: organism-based; conditions: in vivo
Galleria mellonella = experiment: Toxicity in sixth development stage of Galleria mellonella larvae assessed as larvae pupation at 1 to 1000 ug/ml after 7 days relative to control; type: organism-based; conditions: in vivo, 168 h
[15] = Toxicity in sixth development stage of Galleria mellonella larvae assessed as survival rate at 1 ug/ml after 72 hrs; type: organism-based; conditions: in vivo
[16] = Toxicity in sixth development stage of Galleria mellonella larvae assessed as survival rate at 100 ug/ml after 24 hrs; type: organism-based; conditions: in vivo
[17] = Toxicity in sixth development stage of Galleria mellonella larvae assessed as survival rate at 1 ug/ml after 24 hrs; type: organism-based; conditions: in vivo

MIC50 (Staphylococcus aureus [1]): 135 µM (≈ 50 µg/mL) | MIC90 (Staphylococcus aureus [1]): > 270 µM | MIC (Pseudomonas aeruginosa): inactive | MIC50 (Escherichia coli): 101 µM (≈ 37.5 µg/mL) | MIC90 (Escherichia coli): > 270 µM
Compound: FC(F)(F)c1cc(NC(=S)NC2CCCCC2)cc(C(F)(F)F)c1

MIC90 (Staphylococcus aureus [1]): 189 µM (≈ 147 µg/mL) | MIC (Pseudomonas aeruginosa): inactive | MIC90 (Escherichia coli): > 200 µM
Compound: CCC1CN2CCC1C[C@@H]2[C@@H](Oc1nnc(O[C@@H](c2ccnc3ccc(OC)cc23)[C@H]2CC3CCN2CC3CC)c2ccccc12)c1ccnc2ccc(OC)cc12 (stereo not given in full)

Compound: CN[C@@H](CC(C)C)C(=O)N[C@H]1C(=O)N[C@@H](CC(N)=O)C(=O)N[C@H]2C(=O)N[C@H]3C(=O)N[C@H](C(=O)N[C@@H](C(=O)O)c4cc(O)cc(O)c4-c4cc3ccc4O)[C@H](O)c3ccc(c(Cl)c3)Oc3cc2cc(c3O[C@H]2O[C@@H](CO)[C@H](O)[C@@H](O)[C@@H]2O[C@@H]2C[C@@](C)(N)[C@@H](O)[C@@H](C)O2)Oc2ccc(cc2Cl)[C@H]1O [listing 1 of 2 here]
MIC90 (Staphylococcus aureus [2]): 1.35 µM (≈ 1.96 µg/mL)

Compound: C=C[C@H]1CN2CC[C@H]1C[C@H]2[C@@H](N)c1ccnc2ccc(OC)cc12
MIC50 (Staphylococcus aureus [1]): > 309 µM | MIC90 (Staphylococcus aureus [1]): > 309 µM | MIC (Pseudomonas aeruginosa): inactive | MIC50 (Escherichia coli): > 309 µM | MIC90 (Escherichia coli): 309 µM (≈ 100 µg/mL)

Compound: CNC(=S)Nc1cc(C(F)(F)F)cc(C(F)(F)F)c1
MIC (Staphylococcus aureus [1]): inactive | MIC (Pseudomonas aeruginosa): inactive | MIC (Escherichia coli): inactive

Compound: CCC1CN2CCC1CC2[C@@H](Oc1cc2ccccc2c2ccccc12)c1ccnc2ccc(OC)cc12 (stereo not given in full)
MIC90 (Staphylococcus aureus [1]): > 200 µM | MIC (Pseudomonas aeruginosa): inactive | MIC90 (Escherichia coli): > 200 µM

Compound: CN[C@@H](CC(C)C)C(=O)N[C@H]1C(=O)N[C@@H](CC(N)=O)C(=O)N[C@H]2C(=O)N[C@H]3C(=O)N[C@H](C(=O)N[C@@H](C(=O)O)c4cc(O)cc(O)c4-c4cc3ccc4O)[C@H](O)c3ccc(c(Cl)c3)Oc3cc2cc(c3O[C@H]2O[C@@H](CO)[C@H](O)[C@@H](O)[C@@H]2O[C@@H]2C[C@@](C)(N)[C@@H](O)[C@@H](C)O2)Oc2ccc(cc2Cl)[C@H]1O [listing 2 of 2 here]
MIC50 (Staphylococcus aureus [1]): 1.58 µM (≈ 2.29 µg/mL) | MIC80 (Staphylococcus aureus [1]): 3.16 µM (≈ 4.58 µg/mL) | MIC90 (Staphylococcus aureus [1]): 4.21 µM (≈ 6.1 µg/mL) | MIC50 (Escherichia coli): 1.58 µM (≈ 2.29 µg/mL) | MIC80 (Escherichia coli): 2.1 µM (≈ 3.04 µg/mL) | MIC90 (Escherichia coli): 4.21 µM (≈ 6.1 µg/mL)

Compound: C=C[C@H]1CN2CC[C@H]1C[C@H]2[C@@H](NC(=S)Nc1cc(C(F)(F)F)cc(C(F)(F)F)c1)c1ccnc2ccc(OC)cc12
MIC50 (Staphylococcus aureus [2]): 11.4 µM (≈ 6.8 µg/mL) | MIC90 (Staphylococcus aureus [2]): 17.7 µM (≈ 10.5 µg/mL) | MIC50 (Staphylococcus aureus [1]): 3.95 µM (≈ 2.35 µg/mL) | MIC80 (Staphylococcus aureus [1]): 7.9 µM (≈ 4.7 µg/mL) | MIC90 (Staphylococcus aureus [1]): 10.5 µM (≈ 6.26 µg/mL) | survival at 48 h [3]: 100% | survival at 24 h [4]: 100% | MIC (Pseudomonas aeruginosa): inactive | MIC50 (Escherichia coli): 2.63 µM (≈ 1.56 µg/mL) | MIC80 (Escherichia coli): 5.26 µM (≈ 3.13 µg/mL) | MIC90 (Escherichia coli): 7.9 µM (≈ 4.7 µg/mL) | survival at 48 h [5]: 100% | survival at 72 h [6]: 100% | survival at 72 h [7]: 100% | survival at 48 h [8]: 100% | survival at 48 h [9]: 97% | survival at 24 h [10]: 100% | survival at 72 h [11]: 100% | survival at 48 h [12]: 100% | survival at 72 h [13]: 100% | survival at 24 h [14]: 100% | Activity (Galleria mellonella): Non-toxic | survival at 72 h [15]: 97% | survival at 24 h [16]: 100% | survival at 24 h [17]: 100%

Compound: C=C[C@H]1CN2CC[C@H]1C[C@H]2[C@@H](NC(=S)Nc1ccccc1)c1ccnc2ccc(OC)cc12
MIC50 (Staphylococcus aureus [1]): 54.6 µM (≈ 25 µg/mL) | MIC90 (Staphylococcus aureus [1]): 164 µM (≈ 75.1 µg/mL) | survival at 48 h [3]: 100% | survival at 24 h [4]: 100% | MIC (Pseudomonas aeruginosa): inactive | MIC50 (Escherichia coli): 40.9 µM (≈ 18.8 µg/mL) | MIC90 (Escherichia coli): 81.8 µM (≈ 37.5 µg/mL) | survival at 48 h [5]: 100% | survival at 72 h [6]: 100% | survival at 72 h [7]: 100% | survival at 48 h [8]: 100% | survival at 48 h [9]: 100% | survival at 24 h [10]: 100% | survival at 72 h [11]: 100% | survival at 48 h [12]: 100% | survival at 72 h [13]: 100% | survival at 24 h [14]: 100% | Activity (Galleria mellonella): Non-toxic | survival at 72 h [15]: 100% | survival at 24 h [16]: 100% | survival at 24 h [17]: 100%

Compound: C=CC1CN2CCC1CC2[C@H](OCc1ccccc1)c1ccnc2ccc(OC)cc12 (stereo not given in full)
MIC90 (Staphylococcus aureus [1]): > 200 µM | MIC (Pseudomonas aeruginosa): inactive | MIC90 (Escherichia coli): > 200 µM

Compound: C=C[C@H]1CN2CC[C@H]1C[C@H]2CNC(=S)Nc1cc(C(F)(F)F)cc(C(F)(F)F)c1
MIC50 (Staphylococcus aureus [2]): 20.7 µM (≈ 9.07 µg/mL) | MIC90 (Staphylococcus aureus [2]): 31.4 µM (≈ 13.8 µg/mL) | MIC50 (Staphylococcus aureus [1]): 42.9 µM (≈ 18.8 µg/mL) | MIC80 (Staphylococcus aureus [1]): 85.8 µM (≈ 37.5 µg/mL) | MIC90 (Staphylococcus aureus [1]): 85.8 µM (≈ 37.5 µg/mL) | survival at 48 h [3]: 100% | survival at 24 h [4]: 100% | MIC (Pseudomonas aeruginosa): inactive | MIC50 (Escherichia coli): 42.9 µM (≈ 18.8 µg/mL) | MIC80 (Escherichia coli): 85.8 µM (≈ 37.5 µg/mL) | MIC90 (Escherichia coli): 85.8 µM (≈ 37.5 µg/mL) | survival at 48 h [5]: 100% | survival at 72 h [6]: 100% | survival at 72 h [7]: 100% | survival at 48 h [8]: 100% | survival at 48 h [9]: 100% | survival at 24 h [10]: 100% | survival at 72 h [11]: 100% | survival at 48 h [12]: 100% | survival at 72 h [13]: 100% | survival at 24 h [14]: 100% | Activity (Galleria mellonella): Non-toxic | survival at 72 h [15]: 100% | survival at 24 h [16]: 100% | survival at 24 h [17]: 100%
